Assay results taken from ChEMBL document CHEMBL4725259 (Bioorg Med Chem, 2020).
Calls of active or inactive are those of the source. No cut-off for these calls is given here.

Assays:
[1] = biological target: T1, Oxytocin receptor (Homo sapiens) (UniProt P30559); experiment: Antagonist activity at human OXTR expressed in CHO-K1 cells at 20 uM by PathHunter beta-arrestin assay relative to control; format: cell-based; conditions: filed as antagonist
T1 sequence (whole entry): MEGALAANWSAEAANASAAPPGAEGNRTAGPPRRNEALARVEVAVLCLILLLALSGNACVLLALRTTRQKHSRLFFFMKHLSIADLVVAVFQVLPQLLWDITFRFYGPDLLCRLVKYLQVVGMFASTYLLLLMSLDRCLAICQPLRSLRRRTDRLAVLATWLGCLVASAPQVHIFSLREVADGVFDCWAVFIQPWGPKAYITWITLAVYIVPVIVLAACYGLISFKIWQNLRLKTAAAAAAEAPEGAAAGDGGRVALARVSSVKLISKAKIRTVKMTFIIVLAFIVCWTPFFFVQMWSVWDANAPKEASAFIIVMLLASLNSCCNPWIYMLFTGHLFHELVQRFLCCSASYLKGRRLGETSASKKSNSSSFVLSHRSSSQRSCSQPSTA

[2] = biological target: T2, C-C chemokine receptor type 3 (Homo sapiens, UniProt P51677); experiment: Antagonist activity at human CCR3 expressed in CHO-K1 cells by PathHunter beta-arrestin assay; format: cell-based
T2 sequence (P51677 whole entry): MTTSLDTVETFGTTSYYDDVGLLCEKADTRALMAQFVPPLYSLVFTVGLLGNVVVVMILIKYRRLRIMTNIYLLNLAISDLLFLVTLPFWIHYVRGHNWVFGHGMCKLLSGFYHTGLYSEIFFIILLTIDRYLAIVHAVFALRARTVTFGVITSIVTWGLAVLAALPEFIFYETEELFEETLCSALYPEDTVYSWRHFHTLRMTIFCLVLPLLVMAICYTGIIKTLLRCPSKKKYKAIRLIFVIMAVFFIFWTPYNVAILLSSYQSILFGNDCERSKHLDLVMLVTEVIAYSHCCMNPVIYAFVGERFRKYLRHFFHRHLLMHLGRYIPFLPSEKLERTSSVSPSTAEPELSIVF

[3] = biological target: T3, C-X-C chemokine receptor type 4 (Homo sapiens, UniProt P61073); experiment: Antagonist activity at human CXCR4 expressed in mouse C2C12 cells at 20 uM by PathHunter beta-arrestin assay relative to control; format: cell-based; conditions: filed as antagonist
T3 sequence (P61073 whole entry): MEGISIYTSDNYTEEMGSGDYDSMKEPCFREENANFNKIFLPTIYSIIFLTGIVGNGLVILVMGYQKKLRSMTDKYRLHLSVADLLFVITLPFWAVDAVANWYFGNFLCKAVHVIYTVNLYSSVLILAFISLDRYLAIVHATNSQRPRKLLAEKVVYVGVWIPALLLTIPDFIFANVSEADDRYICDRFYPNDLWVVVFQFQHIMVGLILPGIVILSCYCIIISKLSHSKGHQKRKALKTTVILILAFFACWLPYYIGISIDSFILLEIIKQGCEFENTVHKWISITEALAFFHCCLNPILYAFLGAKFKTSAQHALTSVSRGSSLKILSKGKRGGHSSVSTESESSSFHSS

[4] = biological target: C-C chemokine receptor type 8 (Homo sapiens, UniProt P51685); experiment: Antagonist activity at human CCR8 expressed in CHO-K1 cells by PathHunter beta-arrestin assay; format: cell-based
Chain of C-C chemokine receptor type 8 (P51685 whole entry): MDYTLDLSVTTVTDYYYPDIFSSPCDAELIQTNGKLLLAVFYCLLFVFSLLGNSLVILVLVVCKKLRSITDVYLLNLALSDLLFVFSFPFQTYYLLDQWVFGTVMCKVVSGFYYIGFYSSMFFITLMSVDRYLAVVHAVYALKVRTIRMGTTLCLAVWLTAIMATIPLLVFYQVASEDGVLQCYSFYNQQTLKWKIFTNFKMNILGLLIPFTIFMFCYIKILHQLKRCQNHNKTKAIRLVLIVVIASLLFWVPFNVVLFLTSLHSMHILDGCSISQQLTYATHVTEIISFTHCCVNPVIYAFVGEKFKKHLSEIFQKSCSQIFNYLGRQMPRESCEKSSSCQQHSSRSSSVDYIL

[5] = biological target: T4, CX3C chemokine receptor 1 (Homo sapiens) (UniProt P49238); experiment: Antagonist activity at human CX3CR1 expressed in CHO-K1 cells at 20 uM by PathHunter beta-arrestin assay relative to control; format: cell-based; conditions: filed as antagonist
T4 sequence (whole entry): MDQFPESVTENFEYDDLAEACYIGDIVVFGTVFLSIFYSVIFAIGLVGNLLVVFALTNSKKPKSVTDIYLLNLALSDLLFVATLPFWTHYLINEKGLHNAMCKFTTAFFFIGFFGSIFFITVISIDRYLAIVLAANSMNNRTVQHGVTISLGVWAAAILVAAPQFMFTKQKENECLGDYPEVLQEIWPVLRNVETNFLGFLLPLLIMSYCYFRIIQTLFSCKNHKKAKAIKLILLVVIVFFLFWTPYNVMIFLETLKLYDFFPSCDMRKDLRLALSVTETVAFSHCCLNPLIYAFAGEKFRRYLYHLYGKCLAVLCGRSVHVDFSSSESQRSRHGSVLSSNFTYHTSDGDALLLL

[6] = biological target: T5, CX3C chemokine receptor 1 (Homo sapiens, UniProt P49238); experiment: Antagonist activity at human CX3CR1 expressed in CHO-K1 cells by PathHunter beta-arrestin assay; format: cell-based
T5 sequence (P49238 whole entry): T4 sequence (whole entry)

[7] = biological target: T6, Prolactin-releasing peptide receptor (Homo sapiens) (UniProt P49683); experiment: Antagonist activity at human PRLHR expressed in CHO-K1 cells at 20 uM by PathHunter beta-arrestin assay relative to control; format: cell-based; conditions: filed as antagonist
T6 sequence (whole entry): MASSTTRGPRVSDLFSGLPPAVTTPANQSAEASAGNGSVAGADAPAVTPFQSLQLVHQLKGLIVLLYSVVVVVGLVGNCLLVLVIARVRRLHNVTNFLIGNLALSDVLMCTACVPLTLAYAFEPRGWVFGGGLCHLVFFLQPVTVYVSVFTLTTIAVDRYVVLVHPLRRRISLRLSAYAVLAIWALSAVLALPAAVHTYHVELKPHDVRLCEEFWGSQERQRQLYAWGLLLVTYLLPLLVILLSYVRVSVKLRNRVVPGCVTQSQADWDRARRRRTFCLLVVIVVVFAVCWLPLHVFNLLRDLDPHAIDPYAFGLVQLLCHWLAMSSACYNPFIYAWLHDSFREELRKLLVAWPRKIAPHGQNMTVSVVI

[8] = biological target: T7, Follicle-stimulating hormone receptor (Homo sapiens) (UniProt P23945); experiment: Agonist activity at human FSHR expressed in CHO-K1 cells at 20 uM by PathHunter beta-arrestin assay relative to control; format: cell-based
T7 sequence (whole entry): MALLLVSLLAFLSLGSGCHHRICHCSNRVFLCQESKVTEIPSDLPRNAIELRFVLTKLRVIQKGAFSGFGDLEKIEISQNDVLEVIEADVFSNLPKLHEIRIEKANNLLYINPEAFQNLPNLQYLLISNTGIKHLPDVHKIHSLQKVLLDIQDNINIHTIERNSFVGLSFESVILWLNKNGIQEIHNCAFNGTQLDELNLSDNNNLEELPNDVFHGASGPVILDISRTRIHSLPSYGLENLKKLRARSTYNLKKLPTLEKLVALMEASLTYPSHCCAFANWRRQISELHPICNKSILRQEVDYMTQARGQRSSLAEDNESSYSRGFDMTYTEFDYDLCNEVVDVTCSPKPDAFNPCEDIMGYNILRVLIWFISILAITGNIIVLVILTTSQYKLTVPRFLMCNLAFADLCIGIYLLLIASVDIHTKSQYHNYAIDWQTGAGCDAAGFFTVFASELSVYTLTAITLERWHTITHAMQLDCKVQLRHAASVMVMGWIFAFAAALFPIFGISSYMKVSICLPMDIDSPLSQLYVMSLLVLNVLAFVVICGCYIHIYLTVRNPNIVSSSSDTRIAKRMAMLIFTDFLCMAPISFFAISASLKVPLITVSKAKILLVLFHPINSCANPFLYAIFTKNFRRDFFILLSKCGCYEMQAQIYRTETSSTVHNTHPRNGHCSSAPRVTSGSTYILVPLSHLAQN

[9] = biological target: D(2) dopamine receptor (Homo sapiens) (UniProt P14416); experiment: Agonist activity at human DRD2L expressed in CHO-K1 cells at 20 uM by PathHunter beta-arrestin assay relative to control; format: cell-based
Chain of D(2) dopamine receptor (Homo sapiens) (P14416 whole entry): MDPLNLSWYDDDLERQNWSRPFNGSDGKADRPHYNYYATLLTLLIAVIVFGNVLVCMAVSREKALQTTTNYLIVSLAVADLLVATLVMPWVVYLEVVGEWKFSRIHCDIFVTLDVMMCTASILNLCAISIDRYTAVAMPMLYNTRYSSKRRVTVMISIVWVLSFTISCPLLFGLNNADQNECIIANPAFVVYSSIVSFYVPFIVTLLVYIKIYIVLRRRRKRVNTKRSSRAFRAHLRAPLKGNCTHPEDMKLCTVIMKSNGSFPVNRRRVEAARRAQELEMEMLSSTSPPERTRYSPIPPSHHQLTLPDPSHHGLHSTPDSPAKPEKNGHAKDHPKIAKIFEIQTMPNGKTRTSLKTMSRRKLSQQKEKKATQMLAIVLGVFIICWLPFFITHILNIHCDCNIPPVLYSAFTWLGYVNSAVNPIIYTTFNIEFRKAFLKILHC

[10] = biological target: T3, C-X-C chemokine receptor type 4; experiment: Antagonist activity at human CXCR4 expressed in mouse C2C12 cells by PathHunter beta-arrestin assay; format: cell-based
[11] = biological target: D(2) dopamine receptor (Homo sapiens) (UniProt P14416); experiment: Antagonist activity at human DRD2L expressed in CHO-K1 cells at 20 uM by PathHunter beta-arrestin assay relative to control; format: cell-based; conditions: filed as antagonist
Oxytocin receptor = biological target: T8, Oxytocin receptor (Homo sapiens, UniProt P30559); experiment: Antagonist activity at human OXTR expressed in CHO-K1 cells by PathHunter beta-arrestin assay; format: cell-based
T8 sequence (P30559 whole entry): T1 sequence (whole entry)

Vasopressin V2 receptor = Vasopressin V2 receptor (Homo sapiens, UniProt P30518); experiment: Antagonist activity at human AVPR2 by PathHunter beta-arrestin assay
Chain of Vasopressin V2 receptor (P30518 whole entry): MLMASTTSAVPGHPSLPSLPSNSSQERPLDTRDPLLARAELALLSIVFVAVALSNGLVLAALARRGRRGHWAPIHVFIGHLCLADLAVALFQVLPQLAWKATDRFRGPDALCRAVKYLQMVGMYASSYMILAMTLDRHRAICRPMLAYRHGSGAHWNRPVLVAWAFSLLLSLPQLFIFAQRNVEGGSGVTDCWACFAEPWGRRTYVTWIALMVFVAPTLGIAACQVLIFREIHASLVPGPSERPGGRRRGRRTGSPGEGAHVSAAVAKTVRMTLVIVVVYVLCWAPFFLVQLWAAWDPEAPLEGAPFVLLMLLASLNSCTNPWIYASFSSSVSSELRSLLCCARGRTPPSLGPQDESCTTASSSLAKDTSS

SMILES | inhibition [1] [%] | IC50 [2] [µM] | inhibition [3] [%] | IC50 [4] [µM] | inhibition [5] [%] | IC50 [6] [µM] | inhibition [7] [%] | Activity [8] | Activity [9] | IC50 [10] [µM] | inhibition [11] [%] | IC50 (Oxytocin receptor) [µM] | IC50 (Vasopressin V2 receptor) | IC50 (Vasopressin V2 receptor; read-out: IC50) [µM]
COC(=O)[C@@H]1[C@H]2C[C@@H](c3[nH]c4ccccc4c3CCn3cc(-c4cccc(Cl)c4)nn3)N(C#N)C[C@@H]2CC[C@@H]1O | 9 | 8.3 | 125 | 7.29 | 92 | 8.47 | 19 | inactive | inactive | 7.94 | – | – | – | –
COC(=O)[C@@H]1[C@H]2C[C@@H]3N(CC[C@@]34C(=O)N(Cc3cccc(OC)c3)c3ccccc34)C[C@@H]2CC[C@@H]1OCc1cccc(OC)c1 | 97 | – | 39 | – | 72 | – | 63 | inactive | inactive | – | 9 | 1.16 | Dose-dependent effect | 0.459
